Reference: PMC5224920, “Assessing the mechanism and therapeutic potential of modulators of the human Mediator complex-associated protein kinases” (eLife, 2016)

Tested on: 12 single or co-culture in vitro tissue models of primary cells
Experiment: Culture/co-culture cell model panel, extracellular biomarkers (DiscoveRx)
Assay type: cell-based, human
[1] = HDF3CGF stimulated fibroblasts, 4.12E1 nM
[2] = HDF3CGF stimulated fibroblasts, 4.57E0 nM
[3] = HPNo Huvec+PBMC unstimulated, 1.00E4 nM
[4] = HPNo Huvec+PBMC unstimulated, 1.11E3 nM
[5] = HPNo Huvec+PBMC unstimulated, 1.23E2 nM
[6] = HPNo Huvec+PBMC unstimulated, 1.37E1 nM
[7] = HPNo Huvec+PBMC unstimulated, 3.33E3 nM
[8] = HPNo Huvec+PBMC unstimulated, 3.70E2 nM
[9] = HPNo Huvec+PBMC unstimulated, 4.12E1 nM
[10] = HPNo Huvec+PBMC unstimulated, 4.57E0 nM

## Cc1n[nH]c2ncc(C(=O)N3CCC[C@H]3c3ccc(Cl)cc3)cc12 [CMPD4]
[1]
  CXCL9/MIG: -0.024
  CXCL10/IP-10: 0.059
  CXCL11/I-TAC: -0.035
  Collagen I: 0.021
  Collagen III: 0.082
  EGFR: -0.094
  M-CSF: -0.046
  MMP-1: -0.00129
  PAI-I: 0.033
  Proliferation_72hr: -0.178
  SRB: 0.010
  TIMP-1: -0.070
  TIMP-2: 0.099
[2]
  CCL2/MCP-1: -0.020
  CD54/ICAM-1: -0.041
  CD106/VCAM-1: 0.047
  CXCL8/IL-8: -0.013
  CXCL9/MIG: 0.00852
  CXCL10/IP-10: 0.000432
  CXCL11/I-TAC: -0.0056
  Collagen I: 0.023
  Collagen III: 0.081
  EGFR: -0.043
  M-CSF: -0.051
  MMP-1: 0.013
  PAI-I: -0.032
  Proliferation_72hr: -0.119
  SRB: 0.018
  TIMP-1: -0.010
  TIMP-2: 0.136
[3]
  CCL2/MCP-1: 0.039
  CD38: 0.081
  CD40: -0.033
  CD106/VCAM-1: 0.342
  CD141/Thrombomodulin: 0.00066
  CD142/Tissue Factor: 0.063
[4]
  CCL2/MCP-1: 0.053
  CD38: -0.040
  CD40: -0.130
  CD106/VCAM-1: 0.396
  CD141/Thrombomodulin: 0.021
  CD142/Tissue Factor: 0.064
[5]
  CCL2/MCP-1: 0.040
  CD38: -0.022
  CD40: -0.171
  CD106/VCAM-1: 0.307
  CD141/Thrombomodulin: 0.025
  CD142/Tissue Factor: 0.061
[6]
  CCL2/MCP-1: 0.053
  CD38: -0.066
  CD40: -0.106
  CD106/VCAM-1: 0.175
  CD141/Thrombomodulin: 0.022
  CD142/Tissue Factor: 0.010
[7]
  CCL2/MCP-1: 0.058
  CD38: 0.024
  CD40: -0.093
  CD106/VCAM-1: 0.305
  CD141/Thrombomodulin: 0.019
  CD142/Tissue Factor: 0.022
[8]
  CCL2/MCP-1: 0.274
  CD38: -0.028
  CD40: -0.186
  CD106/VCAM-1: 0.375
  CD141/Thrombomodulin: 0.045
  CD142/Tissue Factor: 0.045
[9]
  CCL2/MCP-1: 0.148
  CD38: -0.052
  CD40: -0.089
  CD106/VCAM-1: 0.250
  CD141/Thrombomodulin: 0.031
  CD142/Tissue Factor: 0.096
[10]
  CCL2/MCP-1: -0.076
  CD38: -0.060
  CD40: -0.075
  CD106/VCAM-1: 0.144
  CD141/Thrombomodulin: 0.022
  CD142/Tissue Factor: 0.017
HPNo, 1.00E4 nM
  CD62E/E-Selectin: 0.080
  CD69: 0.150
  CXCL8/IL-8: 0.030
  CXCL9/MIG: -0.025
  M-CSF: 0.075
  SRB: -0.053
  sPGE2: 0.066
  sTNF-alpha: -0.036
HPNo, 1.11E3 nM
  CD62E/E-Selectin: 0.014
  CD69: 0.063
  CXCL8/IL-8: -0.048
  CXCL9/MIG: -0.091
  M-CSF: 0.074
  SRB: -0.034
  sPGE2: 0.043
  sTNF-alpha: -0.019
HPNo, 1.23E2 nM
  CD62E/E-Selectin: -0.027
  CD69: 0.039
  CXCL8/IL-8: 0.011
  CXCL9/MIG: -0.025
  M-CSF: -0.084
  SRB: -0.005
  sPGE2: 0.030
  sTNF-alpha: 0.010
HPNo, 1.37E1 nM
  CD62E/E-Selectin: -0.035
  CD69: -0.005
  CXCL8/IL-8: -0.023
  CXCL9/MIG: -0.068
  M-CSF: 0.015
  SRB: 0.027
  sPGE2: 0.00254
  sTNF-alpha: 0.00645
HPNo, 3.33E3 nM
  CD62E/E-Selectin: -0.020
  CD69: 0.040
  CXCL8/IL-8: -0.040
  CXCL9/MIG: 0.018
  M-CSF: 0.034
  SRB: -0.058
  sPGE2: 0.038
  sTNF-alpha: -0.021
HPNo, 3.70E2 nM
  CD62E/E-Selectin: 0.026
  CD69: 0.012
  CXCL8/IL-8: -0.025
  CXCL9/MIG: -0.067
  M-CSF: -0.063
  SRB: -0.017
  sPGE2: 0.040
  sTNF-alpha: -0.022
HPNo, 4.12E1 nM
  CD62E/E-Selectin: -0.00169
  CD69: 0.020
  CXCL8/IL-8: 0.023
  CXCL9/MIG: -0.041
  M-CSF: -0.031
  SRB: -0.00266
  sPGE2: 0.016
  sTNF-alpha: 0.015
HPNo, 4.57E0 nM
  CD62E/E-Selectin: 0.045
  CD69: 0.075
  CXCL8/IL-8: 0.031
  CXCL9/MIG: -0.000203
  M-CSF: 0.012
  SRB: 0.035
  sPGE2: 0.00462
  sTNF-alpha: 0.128
LPS Huvec+PBMC, 1.00E4 nM
  CCL2/MCP-1: -0.081
  CD40: -0.109
  CD62E/E-Selectin: 0.010
  CD69: 0.030
  CD106/VCAM-1: 0.079
  CD141/Thrombomodulin: 0.127
  CD142/Tissue Factor: 0.079
  CXCL8/IL-8: -0.169
  IL-1alpha: 0.125
  M-CSF: 0.029
  SRB: -0.141
  sPGE2: 0.164
  sTNF-alpha: -0.051
LPS Huvec+PBMC, 1.11E3 nM
  CCL2/MCP-1: -0.044
  CD40: -0.137
  CD62E/E-Selectin: 0.000345
  CD69: 0.043
  CD106/VCAM-1: 0.105
  CD141/Thrombomodulin: 0.090
  CD142/Tissue Factor: 0.097
  CXCL8/IL-8: -0.191
  IL-1alpha: 0.016
  M-CSF: 0.016
  SRB: -0.126
  sPGE2: 0.239
  sTNF-alpha: 0.133
LPS Huvec+PBMC, 1.23E2 nM
  CCL2/MCP-1: -0.026
  CD40: -0.152
  CD62E/E-Selectin: 0.006
  CD69: 0.00187
  CD106/VCAM-1: 0.093
  CD141/Thrombomodulin: 0.087
  CD142/Tissue Factor: 0.139
  CXCL8/IL-8: -0.075
  IL-1alpha: 0.044
  M-CSF: -0.000401
  SRB: -0.089
  sPGE2: 0.245
  sTNF-alpha: 0.048
LPS Huvec+PBMC, 1.37E1 nM
  CCL2/MCP-1: 0.005
  CD40: -0.187
  CD62E/E-Selectin: -0.020
  CD69: -0.009
  CD106/VCAM-1: 0.066
  CD141/Thrombomodulin: 0.056
  CD142/Tissue Factor: 0.073
  CXCL8/IL-8: -0.037
  IL-1alpha: -0.072
  M-CSF: 0.00323
  SRB: -0.040
  sPGE2: 0.171
  sTNF-alpha: 0.038
LPS Huvec+PBMC, 3.33E3 nM
  CCL2/MCP-1: -0.067
  CD40: -0.112
  CD62E/E-Selectin: 0.00461
  CD69: 0.059
  CD106/VCAM-1: 0.096
  CD141/Thrombomodulin: 0.075
  CD142/Tissue Factor: 0.108
  CXCL8/IL-8: -0.193
  IL-1alpha: 0.066
  M-CSF: 0.023
  SRB: -0.130
  sPGE2: 0.179
  sTNF-alpha: 0.057
LPS Huvec+PBMC, 3.70E2 nM
  CCL2/MCP-1: -0.029
  CD40: -0.162
  CD62E/E-Selectin: -0.010
  CD69: 0.00559
  CD106/VCAM-1: 0.093
  CD141/Thrombomodulin: 0.092
  CD142/Tissue Factor: 0.144
  CXCL8/IL-8: -0.137
  IL-1alpha: 0.044
  M-CSF: -0.012
  SRB: -0.096
  sPGE2: 0.189
  sTNF-alpha: 0.099
LPS Huvec+PBMC, 4.12E1 nM
  CCL2/MCP-1: -0.00282
  CD40: -0.180
  CD62E/E-Selectin: -0.032
  CD69: 0.017
  CD106/VCAM-1: 0.090
  CD141/Thrombomodulin: 0.090
  CD142/Tissue Factor: 0.115
  CXCL8/IL-8: -0.044
  IL-1alpha: 0.017
  M-CSF: -0.0023
  SRB: -0.053
  sPGE2: 0.230
  sTNF-alpha: 0.081
LPS Huvec+PBMC, 4.57E0 nM
  CCL2/MCP-1: -0.00276
  CD40: -0.174
  CD62E/E-Selectin: -0.017
  CD69: 0.019
  CD106/VCAM-1: 0.051
  CD141/Thrombomodulin: 0.058
  CD142/Tissue Factor: 0.062
  CXCL8/IL-8: -0.024
  IL-1alpha: -0.00758
  M-CSF: -0.005
  SRB: -0.016
  sPGE2: 0.124
  sTNF-alpha: -0.057
SAg, 1.00E4 nM
  CCL2/MCP-1: -0.077
  CD38: -0.031
  CD40: -0.104
  CD62E/E-Selectin: 0.099
  CD69: 0.140
  CXCL8/IL-8: -0.277
  CXCL9/MIG: -0.047
  PBMC Cytotoxicity: 0.013
  Proliferation: -0.003
  SRB: -0.133
SAg, 1.11E3 nM
  CCL2/MCP-1: -0.125
  CD38: -0.063
  CD40: -0.103
  CD62E/E-Selectin: 0.135
  CD69: 0.166
  CXCL8/IL-8: -0.272
  CXCL9/MIG: -0.097
  PBMC Cytotoxicity: 0.007
  Proliferation: -0.000932
  SRB: -0.168
SAg, 1.23E2 nM
  CCL2/MCP-1: -0.092
  CD38: -0.087
  CD40: -0.136
  CD62E/E-Selectin: 0.130
  CD69: 0.140
  CXCL8/IL-8: -0.108
  CXCL9/MIG: -0.076
  PBMC Cytotoxicity: -0.032
  Proliferation: 0.030
  SRB: -0.149
SAg, 1.37E1 nM
  CCL2/MCP-1: -0.019
  CD38: -0.064
  CD40: -0.117
  CD62E/E-Selectin: 0.101
  CD69: 0.100
  CXCL8/IL-8: -0.060
  CXCL9/MIG: -0.029
  PBMC Cytotoxicity: 0.005
  Proliferation: -0.021
  SRB: -0.058
SAg, 3.33E3 nM
  CCL2/MCP-1: -0.104
  CD38: -0.056
  CD40: -0.138
  CD62E/E-Selectin: 0.125
  CD69: 0.148
  CXCL8/IL-8: -0.259
  CXCL9/MIG: -0.085
  PBMC Cytotoxicity: -0.00278
  Proliferation: -0.016
  SRB: -0.179
SAg, 3.70E2 nM
  CCL2/MCP-1: -0.123
  CD38: -0.080
  CD40: -0.137
  CD62E/E-Selectin: 0.119
  CD69: 0.128
  CXCL8/IL-8: -0.284
  CXCL9/MIG: -0.085
  PBMC Cytotoxicity: -0.040
  Proliferation: -0.011
  SRB: -0.146
SAg, 4.12E1 nM
  CCL2/MCP-1: -0.056
  CD38: -0.062
  CD40: -0.124
  CD62E/E-Selectin: 0.124
  CD69: 0.126
  CXCL8/IL-8: -0.119
  CXCL9/MIG: -0.046
  PBMC Cytotoxicity: -0.001
  Proliferation: 0.000938
  SRB: -0.102
SAg, 4.57E0 nM
  CCL2/MCP-1: 0.040
  CD38: -0.052
  CD40: -0.084
  CD62E/E-Selectin: 0.070
  CD69: 0.062
  CXCL8/IL-8: 0.007
  CXCL9/MIG: -0.031
  PBMC Cytotoxicity: 0.015
  Proliferation: 0.009
  SRB: 0.029
